Like-named read-outs stand apart in the source and are kept apart here. Bounds are passed on as bounds.

Data on three molecules can be found in paper PMC6298744 (Biochemical pharmacology, 2018).

Test [1] deals with T1, 5-HT2A receptor (Homo sapiens, UniProt P28223). Description: biochemical. In kind it is binding. Particulars: for Selectivity (binding ratios) 5-HT2A : 5-HT1A / Selectivity (binding ratios) 5-HT2A : 5-HT2B / Selectivity (binding ratios) 5-HT2A : 5-HT2C: ratio of Ki values.
Test [2] concerns the target T2, 5-HT2C receptor (Homo sapiens, UniProt P28335).
T2 sequence (P28335 33-458): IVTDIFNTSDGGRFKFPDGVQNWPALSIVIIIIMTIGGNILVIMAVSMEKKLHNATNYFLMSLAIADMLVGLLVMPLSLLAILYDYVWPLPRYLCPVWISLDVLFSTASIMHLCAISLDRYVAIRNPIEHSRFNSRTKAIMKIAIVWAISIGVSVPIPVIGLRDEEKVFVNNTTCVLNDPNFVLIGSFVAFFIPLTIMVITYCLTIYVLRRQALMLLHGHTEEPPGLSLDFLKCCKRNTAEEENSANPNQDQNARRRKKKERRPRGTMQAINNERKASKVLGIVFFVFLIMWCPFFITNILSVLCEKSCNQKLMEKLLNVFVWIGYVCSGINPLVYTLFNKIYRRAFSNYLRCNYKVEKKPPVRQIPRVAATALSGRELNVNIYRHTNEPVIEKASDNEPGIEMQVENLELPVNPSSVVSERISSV
Kind of test: cell-based.

In test [3] the target is T1, 5-HT2A receptor. Description: cell-based. The test is classed as cell-based. To be noted: for Selectivity (functional ratios) 5-HT2A: 5-HT1A / Selectivity (functional ratios) 5-HT2A: 5-HT2B / Selectivity (functional ratios) 5-HT2A: 5-HT2C: ratio of EC50 values.
Test [4] concerns the target T3, 5-HT2B receptor (Homo sapiens, UniProt P41595). Description: 5-HT2B receptor inositol monophosphate. In kind it is cell-based. Particulars: for % maximum stimulation, 5-HT2B stimulation of IP-1 formation: normalized to the maximal stimulation by 5-HT.
Test [5] deals with T4, hNET (Homo sapiens, UniProt P23975). Description: cell-based.
T4 sequence (P23975 whole entry): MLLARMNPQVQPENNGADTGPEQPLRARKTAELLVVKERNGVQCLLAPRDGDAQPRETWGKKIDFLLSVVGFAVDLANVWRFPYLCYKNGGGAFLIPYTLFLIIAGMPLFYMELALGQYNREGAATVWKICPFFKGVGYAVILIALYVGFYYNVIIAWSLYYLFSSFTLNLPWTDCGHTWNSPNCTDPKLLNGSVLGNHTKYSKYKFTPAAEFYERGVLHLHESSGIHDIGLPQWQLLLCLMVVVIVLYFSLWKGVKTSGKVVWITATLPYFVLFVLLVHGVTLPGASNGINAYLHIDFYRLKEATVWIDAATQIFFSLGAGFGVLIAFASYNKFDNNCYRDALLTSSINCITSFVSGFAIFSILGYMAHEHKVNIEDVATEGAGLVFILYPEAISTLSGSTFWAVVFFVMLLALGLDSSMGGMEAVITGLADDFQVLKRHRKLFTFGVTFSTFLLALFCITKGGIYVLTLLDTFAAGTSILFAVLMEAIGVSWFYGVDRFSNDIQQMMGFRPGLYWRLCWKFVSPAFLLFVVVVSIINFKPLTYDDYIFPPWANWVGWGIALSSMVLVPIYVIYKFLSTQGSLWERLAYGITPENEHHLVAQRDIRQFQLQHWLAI
The target of test [6] is T5, hDAT (Homo sapiens, UniProt Q01959). Description: Release of preloaded [^3H]DA from HEK-hDAT cells. In kind it is cell-based. Particulars: for % maximum release, hDAT [^3H]DA: relative to maximum release induced by METH (1–10 μM).
T5 sequence (Q01959 whole entry): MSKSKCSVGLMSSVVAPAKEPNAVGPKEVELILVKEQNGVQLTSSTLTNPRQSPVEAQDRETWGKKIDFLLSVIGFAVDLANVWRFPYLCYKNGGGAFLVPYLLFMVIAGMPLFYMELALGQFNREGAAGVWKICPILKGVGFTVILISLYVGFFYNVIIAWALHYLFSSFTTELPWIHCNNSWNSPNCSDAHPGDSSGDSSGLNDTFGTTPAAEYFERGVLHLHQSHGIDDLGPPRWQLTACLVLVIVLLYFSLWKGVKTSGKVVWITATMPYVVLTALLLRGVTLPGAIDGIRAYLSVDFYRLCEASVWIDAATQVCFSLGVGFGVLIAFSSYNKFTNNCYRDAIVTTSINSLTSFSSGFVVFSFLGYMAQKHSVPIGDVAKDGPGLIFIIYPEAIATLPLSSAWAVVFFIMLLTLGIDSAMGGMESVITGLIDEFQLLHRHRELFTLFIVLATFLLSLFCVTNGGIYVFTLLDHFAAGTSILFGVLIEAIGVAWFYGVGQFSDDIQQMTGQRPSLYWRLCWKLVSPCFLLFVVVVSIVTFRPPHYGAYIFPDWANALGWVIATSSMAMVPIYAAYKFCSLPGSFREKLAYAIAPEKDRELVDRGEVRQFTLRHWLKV
The target in test [7] is T6, human 5-HT1A receptor (Homo sapiens, UniProt P08908).
T6 sequence (P08908 1-422): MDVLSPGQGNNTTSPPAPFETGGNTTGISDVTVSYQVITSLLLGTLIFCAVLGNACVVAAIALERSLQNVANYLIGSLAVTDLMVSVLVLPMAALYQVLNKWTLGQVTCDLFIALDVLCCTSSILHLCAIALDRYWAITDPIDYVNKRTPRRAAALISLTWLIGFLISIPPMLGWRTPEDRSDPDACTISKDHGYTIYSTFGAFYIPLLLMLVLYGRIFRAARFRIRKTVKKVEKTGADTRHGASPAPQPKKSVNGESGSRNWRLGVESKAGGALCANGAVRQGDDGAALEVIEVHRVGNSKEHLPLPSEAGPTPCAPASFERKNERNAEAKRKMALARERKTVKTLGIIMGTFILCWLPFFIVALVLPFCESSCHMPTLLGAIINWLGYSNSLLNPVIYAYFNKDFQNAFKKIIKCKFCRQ
Description: 5-HT1A receptor [^35S]GTPγS binding stimulation. Particulars: for % maximum stimulation, 5-HT1A stimulation of [^35S]GTPγS binding: normalized to the maximal stimulation by 5-HT. The test is classed as biochemical.

For test [8], the target named is T5, hDAT. Kind of test: Inhibition of [^3H]DA uptake by HEK-hDAT cells. In kind it is cell-based.
The target in test [9] is T7, hSERT (Homo sapiens, UniProt P31645). Description: Inhibition of [^125I]RTI-55 binding to hSERT.
T7 sequence (P31645 whole entry): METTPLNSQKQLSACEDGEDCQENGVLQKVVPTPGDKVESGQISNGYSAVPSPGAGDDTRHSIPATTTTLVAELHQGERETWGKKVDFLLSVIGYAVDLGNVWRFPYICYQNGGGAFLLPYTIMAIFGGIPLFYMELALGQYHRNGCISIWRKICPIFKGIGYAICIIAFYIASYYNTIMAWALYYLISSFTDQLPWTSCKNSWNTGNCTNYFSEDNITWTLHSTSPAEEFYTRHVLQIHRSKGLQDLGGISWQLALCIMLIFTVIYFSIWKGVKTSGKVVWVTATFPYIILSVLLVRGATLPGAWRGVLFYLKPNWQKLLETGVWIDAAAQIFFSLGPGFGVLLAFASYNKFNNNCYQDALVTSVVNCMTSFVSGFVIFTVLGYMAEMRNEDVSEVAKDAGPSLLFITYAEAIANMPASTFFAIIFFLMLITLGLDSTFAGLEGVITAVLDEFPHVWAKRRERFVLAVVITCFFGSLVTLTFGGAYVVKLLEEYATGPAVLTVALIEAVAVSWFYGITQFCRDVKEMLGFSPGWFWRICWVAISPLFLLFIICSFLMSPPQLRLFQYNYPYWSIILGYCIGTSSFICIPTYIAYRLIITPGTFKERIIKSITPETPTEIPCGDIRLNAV
Test [10] has as its target T7, hSERT. Description: Release of preloaded [^3H]5-HT from HEK-hSERT cells. The test is classed as cell-based. To be noted: for % maximum release, hSERT [^3H]5-HT: relative to maximum release induced by METH (0.3–1 mM).
The target in test [11] is T3, 5-HT2B receptor. Kind of test: 5-HT2B receptor [^3H]5-HT binding.
In test [12] the target is T5, hDAT. Kind of test: Inhibition of [^125I]RTI-55 binding to hDAT.
Test [13] concerns the target T4, hNET. Kind of test: Release of preloaded [^3H]NE from HEK-hNET cells. In kind it is cell-based. To be noted: for % maximum release, hNET [^3H]NE: relative to maximum release induced by METH (0.3–1 μM).
For test [14], the target named is T6, human 5-HT1A receptor. Description: 5-HT1A receptor [^3H]8-OH-DPAT radioligand binding.
The target of test [15] is T7, hSERT. Kind of test: Inhibition of [^3H]5-HT uptake by HEK-hSERT cells. The test is classed as cell-based.
The target of test [16] is T4, hNET. Kind of test: biochemical. In kind it is binding.
Setting [17] is: read-out: EC50, 5-HT2B stimulation of IP-1 formation, mean ± sem.
Setting [18] is: read-out: Drug-induced release of [^3H]neurotransmitter EC50, hDAT [^3H]DA, mean ± sem, HEK-hDAT.
[19] abbreviates: read-out: EC50, 5-HT1A stimulation of [^35S]GTPγS binding, mean ± sem.
[20] abbreviates: read-out: Inhibition of [^125I]RTI-55 binding Ki, hSERT, mean ± sem, HEK-hSERT.
Where [21] appears, read: read-out: Drug-induced release of [^3H]neurotransmitter EC50, hSERT [^3H]5-HT, mean ± sem, HEK-hSERT.
Setting [22] is: read-out: Inhibition of [^125I]RTI-55 binding Ki, hDAT, mean ± sem, HEK-hDAT.
Where [23] appears, read: read-out: Drug-induced release of [^3H]neurotransmitter EC50, hNET [^3H]NE, mean ± sem, HEK-hNET.
Where [24] appears, read: read-out: Inhibition of radioligand binding Ki, 5-HT1A [^3H]8OH-DPAT, mean ± sem, recombinant human 5-HT1A in HEK cells, agonist radioligand.
Where [25] appears, read: read-out: Inhibition of [^125I]RTI-55 binding Ki, hNET, mean ± sem, HEK-hNET.
[26] abbreviates: normalized to the maximal stimulation by 5-HT.

T3 sequence (P41595 whole entry): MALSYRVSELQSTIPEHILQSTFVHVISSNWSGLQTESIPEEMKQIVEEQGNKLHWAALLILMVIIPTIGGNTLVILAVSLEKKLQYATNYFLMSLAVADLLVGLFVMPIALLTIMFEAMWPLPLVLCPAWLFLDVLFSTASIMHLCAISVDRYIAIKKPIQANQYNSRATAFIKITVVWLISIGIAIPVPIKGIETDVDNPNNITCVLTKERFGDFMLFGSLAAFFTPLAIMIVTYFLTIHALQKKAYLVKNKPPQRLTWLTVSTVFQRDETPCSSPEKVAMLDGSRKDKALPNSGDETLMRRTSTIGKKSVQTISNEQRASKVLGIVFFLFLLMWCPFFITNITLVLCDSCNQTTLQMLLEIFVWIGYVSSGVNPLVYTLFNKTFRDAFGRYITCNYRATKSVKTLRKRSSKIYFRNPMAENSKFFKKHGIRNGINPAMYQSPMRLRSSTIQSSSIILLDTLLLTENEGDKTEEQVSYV
T1 sequence (P28223 whole entry): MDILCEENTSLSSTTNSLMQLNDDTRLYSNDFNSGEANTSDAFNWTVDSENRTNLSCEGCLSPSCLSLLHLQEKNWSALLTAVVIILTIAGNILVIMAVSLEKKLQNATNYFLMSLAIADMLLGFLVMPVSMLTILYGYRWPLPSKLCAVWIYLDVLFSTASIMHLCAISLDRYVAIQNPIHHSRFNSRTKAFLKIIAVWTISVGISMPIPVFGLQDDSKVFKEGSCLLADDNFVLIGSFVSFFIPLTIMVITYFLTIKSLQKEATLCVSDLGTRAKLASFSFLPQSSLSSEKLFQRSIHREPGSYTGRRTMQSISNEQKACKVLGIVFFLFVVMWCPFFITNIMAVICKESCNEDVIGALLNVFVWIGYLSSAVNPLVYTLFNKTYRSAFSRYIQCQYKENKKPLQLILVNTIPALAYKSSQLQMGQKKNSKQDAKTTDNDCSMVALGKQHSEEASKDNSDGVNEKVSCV

Take `CCc1cc(OC)c(CCNCc2ccccc2OC)cc1OC` [25E-NBOMe, 2-(4-ethyl-2,5-dimethoxyphenyl)-N-(2-methoxybenzyl)ethanamine]: the Ki (usually a dissociation constant, usually derived from enzyme kinetics or from competition with a known ligand) in test [1] was 0.127 ± 0.019 nM; in [9], 1590 ± 120 nM; in test [11] it was 1.11 ± 0.32 nM; in [12], 19600 ± 1200 nM; in test [14], 1680 ± 350 nM; in test [16] it was 5400 ± 1000 nM. In addition, the “Selectivity (binding ratios) 5-HT2A : 5-HT1A” value in [1] turned out to be 13200. Besides, in [1], the “Selectivity (binding ratios) 5-HT2A : 5-HT2B” value is 8.7. Moreover, in test [1], the “Selectivity (binding ratios) 5-HT2A : 5-HT2C” value is given as 2.4. Moreover, the EC50 (as a rule, the concentration that produces a half-maximal response) in test [2] was 0.95 ± 0.18 nM; in test [3] (EC50, 5-HT2A stimulation of IP-1 formation, mean ± sem) it was 0.5 ± 0.14 nM; in test [4] it was 23.5 ± 6 nM; in test [6], more than 85000 nM; in test [7] it was 13700 ± 5600 nM; in [10], more than 100000 nM. Besides, in [13], the EC50 is more than 66000 nM. Also, the Emax in [2] (read-out: % maximum stimulation, 5-HT2C stimulation of IP-1 formation) was 91.8%; in test [3] (read-out: % maximum stimulation, 5-HT2A stimulation of IP-1 formation), 87.1%; in [4] (read-out: % maximum stimulation, 5-HT2B stimulation of IP-1 formation), 49.4%; in test [7] (read-out: % maximum stimulation, 5-HT1A stimulation of [^35S]GTPγS binding) it was 38%. Besides, the “Selectivity (functional ratios) 5-HT2A: 5-HT1A” value in test [3] is on record as 27,000. Further, the “Selectivity (functional ratios) 5-HT2A: 5-HT2B” value in test [3] was 47. For the same molecule, the “Selectivity (functional ratios) 5-HT2A: 5-HT2C” value in test [3] worked out at 1.9. In addition, the IC50 (commonly the concentration that inhibits the measured activity by half) in test [5] came out at 2310 ± 700 nM; in test [8] it was 34000 ± 10000 nM; in test [15] it was 1440 ± 140 nM. The “% maximum release, hDAT [^3H]DA” value in test [6] amounted to 5.8 ± 6.4%. The “% maximum release, hSERT [^3H]5-HT” value in [10] is listed as 0.21 ± 0.77%. In addition, the “% maximum release, hNET [^3H]NE” value in [13] is recorded as 17.1 ± 5.9%.

Consider `COc1cc(CC(C)N)c(OC)cc1C` (single isomer, unassigned; (-)) [DOM, (-)2,5-dimethoxy-4-methylamphetamine, reference compound], for which the Ki in [1] (read-out: Inhibition of radioligand binding Ki, 5-HT2A [^125I]DOI) was 18.3 nM; in test [9] (setting [20]), more than 100000 nM; in [12] (setting [22]), more than 100000 nM; in test [14] (setting [24]), 3660 ± 470 nM; in test [16] (setting [25]), more than 100000 nM. In [3], the “% maximum stimulation, 5-HT2A stimulation of IP-1 formation” value was 39.9 ± 5.4 (3) 94.6 ± 4.1%. In addition, the EC50 in [3] (read-out: EC50, 5-HT2A stimulation of IP-1 formation) is 39.9 nM; in test [4] (setting [17]) it was 145 ± 47 nM; in test [6] (setting [18]), more than 100000 nM; in test [7] (setting [19]), 12800 ± 4700 nM; in test [10] (setting [21]) it was more than 100000 nM; in test [13] (setting [23]), more than 42000 nM. Further, the “% maximum stimulation, 5-HT2B stimulation of IP-1 formation” value in test [4] is on record as 96.2 ± 3.2%. In addition, in [6], the “% maximum release, hDAT [^3H]DA” value is −0.20 ± 0.16%. In test [7], the “% maximum stimulation, 5-HT1A stimulation of [^35S]GTPγS binding” value is 74 ± 25%. Further, the “% maximum release, hSERT [^3H]5-HT” value in test [10] amounted to 2.9 ± 3.4%. Moreover, the “% maximum release, hNET [^3H]NE” value in test [13] was found to be 25.5 ± 2.0%.

In the case of `COc1cc([N+](=O)[O-])c(OC)cc1CCNCc1ccccc1OC` [25N-NBOMe], the “Selectivity (binding ratios) 5-HT2A : 5-HT1A” value in test [1] was found to be 15700. The “Selectivity (binding ratios) 5-HT2A : 5-HT2B” value in test [1] stood at 60. Moreover, the “Selectivity (binding ratios) 5-HT2A : 5-HT2C” value in test [1] was determined as 7.4. The “% maximum stimulation, 5-HT2C stimulation of IP-1 formation” value in [2] (setting [26]) came out at 99.4 ± 0.4%. Further, the EC50 is 1.32 ± 0.27 nM in [2] (read-out: EC50, 5-HT2C stimulation of IP-1 formation, mean ± sem); 0.51 ± 0.19 nM in test [3] (read-out: EC50, 5-HT2A stimulation of IP-1 formation, mean ± sem); 47 ± 11 nM in [4] (setting [17]); more than 100000 nM in test [6] (setting [18]); 4800 ± 1800 nM in test [7] (setting [19]); more than 100000 nM in [10] (setting [21]). Moreover, the EC50 in test [13] (setting [23]) is more than 38000 nM. Besides, the “% maximum stimulation, 5-HT2A stimulation of IP-1 formation” value in [3] (setting [26]) is reported as 87.9 ± 3.4%. The “Selectivity (functional ratios) 5-HT2A: 5-HT1A” value in test [3] stood at 9400. Further, the “Selectivity (functional ratios) 5-HT2A: 5-HT2B” value in test [3] came to 92. Moreover, in test [3], the “Selectivity (functional ratios) 5-HT2A: 5-HT2C” value is given as 2.6. In addition, in test [4], the “% maximum stimulation, 5-HT2B stimulation of IP-1 formation” value came out at 57.6 ± 8.6%. Further, the “% maximum release, hDAT [^3H]DA” value in test [6] is −0.89 ± 0.91%. In addition, the “% maximum stimulation, 5-HT1A stimulation of [^35S]GTPγS binding” value in test [7] is 35.6 ± 6.6%. Further, the Ki in [9] (setting [20]) was determined as 5810 ± 900 nM; in [12] (setting [22]), 37900 ± 4600 nM; in test [14] (setting [24]) it was 2260 ± 230 nM; in test [16] (setting [25]), 11300 ± 3500 nM. For the same molecule, the “% maximum release, hSERT [^3H]5-HT” value in test [10] is given as −0.25 ± 0.54%. For the same molecule, the “% maximum release, hNET [^3H]NE” value in test [13] is reported as 25 ± 15%.
